EC50 data for 64 compounds are collected here from PubChem BioAssay AID588605 (Sanford-Burnham Center for Chemical Genomics, 2011).

Activity calls are given as the source filed them. How the calls were made is not given here.

The test addresses Alkaline phosphatase, tissue-nonspecific isozyme (Homo sapiens) (UniProt P05186). The test is described as follows: human TNAP activity change by analogs – biochemical, set 2, selectivity assay for mouse IAP activator project, SAR follow-up (AID 588605). The following applies: TNAP enzyme assay, SAR counter-screen for mouse IAP activators. In general terms: The purpose of a counterscreen is to sort out artefacts and off-target activity.

Alkaline phosphatase, tissue-nonspecific isozyme (Homo sapiens), sequence (P05186 whole entry, looked up): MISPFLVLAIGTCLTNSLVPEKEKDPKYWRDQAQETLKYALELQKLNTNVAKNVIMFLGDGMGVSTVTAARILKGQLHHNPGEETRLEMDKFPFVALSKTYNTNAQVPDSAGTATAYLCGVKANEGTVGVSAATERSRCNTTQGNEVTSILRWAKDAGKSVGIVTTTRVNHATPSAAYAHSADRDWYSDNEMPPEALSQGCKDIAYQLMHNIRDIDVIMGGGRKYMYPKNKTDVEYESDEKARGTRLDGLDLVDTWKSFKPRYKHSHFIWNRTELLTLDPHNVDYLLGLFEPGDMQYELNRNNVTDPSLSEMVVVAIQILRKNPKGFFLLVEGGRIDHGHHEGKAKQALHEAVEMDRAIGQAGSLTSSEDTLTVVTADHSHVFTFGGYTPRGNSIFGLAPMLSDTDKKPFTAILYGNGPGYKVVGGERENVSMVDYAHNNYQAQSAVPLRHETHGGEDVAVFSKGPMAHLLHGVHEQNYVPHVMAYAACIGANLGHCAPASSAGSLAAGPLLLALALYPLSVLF

On to `Cc1ccc(CNC(=S)Nc2ccc(S(=O)(=O)N(C)C)cc2)cc1`, for which the EC50 is 86.1 µM.
Under `O=S(=O)(c1ccc(NC(=S)NCC(c2ccccc2)c2ccccc2)cc1)N1CCCCC1` stands 25.5 µM; under `Cc1ccc(C)c(NC(=S)Nc2ccc(S(=O)(=O)N3CCCCC3)cc2)c1`, > 100 µM (inactive).
For `O=S(=O)(c1ccc(NC(=S)NCc2cccc(F)c2)cc1)N1CCCCC1`, the EC50 was 53.6 µM.
Under `CN(C)S(=O)(=O)c1cccc(NC(=S)NCCN2CCCC2)c1` stands > 100 µM (inactive); under `Cc1ccc(S(=O)(=O)N(C)C)cc1NC(=S)NC(C)CCCC(C)C` (centres undefined), 57.9 µM; under `CN(C)S(=O)(=O)c1ccc(NC(=S)NCCc2cccc(O)c2)cc1`, > 100 µM (inactive).
For the compound `CCN(CC)S(=O)(=O)c1ccc(NC(=S)NCC(c2ccccc2)c2ccccc2)cc1`, the EC50 is 45.8 µM.
Under `O=C(NC(=S)Nc1cc(S(=O)(=O)N2CCOCC2)ccc1O)c1ccco1` stands > 100 µM (inactive); under `CN(C)S(=O)(=O)c1ccc(NC(=S)NCCc2ccccc2)cc1`, > 100 µM (inactive); under `COc1ccc(CNC(=S)Nc2ccc(S(=O)(=O)N3CCCCC3)cc2)cc1OC`, 75.3 µM.
Under `O=S(=O)(c1ccc(NC(=S)NC(c2ccccc2)c2ccccc2)cc1)N1CCCCC1` stands 11 µM; under `O=S(=O)(c1ccc(NC(=S)NCCC(c2ccccc2)c2ccccc2)cc1)N1CCCCC1`, 47.2 µM; under `CCN(CC)CCCNC(=S)Nc1cccc(S(=O)(=O)N(C)C)c1`, > 100 µM (inactive).
With `CN(C)S(=O)(=O)c1cccc(NC(=S)NCc2ccc(Cl)cc2)c1` the figure was 92.5 µM; with `COc1ccc(CCNC(=S)Nc2ccc(S(=O)(=O)N3CCCCC3)cc2)cc1OC`, 94.4 µM; with `CC(CCc1ccccc1)NC(=S)Nc1cccc(S(=O)(=O)N(C)C)c1` (centres undefined), 62.8 µM.
For the compound `CN(CCc1ccccc1)C(=S)Nc1cccc(S(=O)(=O)N(C)C)c1`, the EC50 is > 100 µM (inactive).
With `COc1cccc(CNC(=S)Nc2ccc(S(=O)(=O)N(C)C)cc2)c1` the figure was > 100 µM (inactive); with `CC(CNC(=S)Nc1cccc(S(=O)(=O)N(C)C)c1)N1CCN(c2ccccc2)CC1` (centres undefined), > 100 µM (inactive); with `Cc1ccc(CNC(=S)Nc2cccc(S(=O)(=O)N(C)C)c2)cc1`, > 100 µM (inactive).
Under `CN(C)S(=O)(=O)c1ccc(NC(=S)NCCN2CCCC2)cc1` stands > 100 µM (inactive); under `CN(C)S(=O)(=O)c1cccc(NC(=S)NCCCn2ccnc2)c1`, > 100 µM (inactive); under `CN(C)S(=O)(=O)c1cccc(NC(=S)NCCCN2CCCC2=O)c1`, > 100 µM (inactive).
Under `Cc1ccc(S(=O)(=O)N(C)C)cc1NC(=S)NC(C)CCC(C)C` (centres undefined) stands 87.1 µM.
Turning to `CN(CCc1ccccn1)C(=S)Nc1cccc(S(=O)(=O)N(C)C)c1`, the EC50 is > 100 µM (inactive).
As for `CN(C)S(=O)(=O)c1ccc(NC(=S)NCC(c2ccccc2)c2ccccc2)cc1`, the EC50 was 95.2 µM.
Turning to `CN(C)S(=O)(=O)c1cccc(NC(=S)NCC(c2ccccc2)c2ccccc2)c1`, the EC50 is 22.9 µM.
For `CCN(CC)S(=O)(=O)c1ccc(NC(=S)NCCC(c2ccccc2)c2ccccc2)cc1`, the EC50 was 29.7 µM.
As for `COc1ccc(CCNC(=S)Nc2ccc(S(=O)(=O)N3CCCCC3)cc2)cc1`, the EC50 is 40.1 µM.
With `CN(C)S(=O)(=O)c1cccc(NC(=S)NCCc2cccc(Br)c2)c1` the figure was 57.9 µM; with `CN(C)S(=O)(=O)c1cccc(NC(=S)NCCc2ccccc2)c1`, 97.8 µM; with `CC1CCN(S(=O)(=O)c2ccc(NC(=S)NC(c3ccccc3)c3ccccc3)cc2)CC1`, > 100 µM (inactive).
Under `Cc1ccc(S(=O)(=O)N(C)C)cc1NC(=S)NC(=O)C12CC3CC(CC(C3)C1)C2` stands > 100 µM (inactive).
With `CN(C)CC(C)(C)CNC(=S)Nc1cccc(S(=O)(=O)N(C)C)c1` the figure was > 100 µM (inactive).
As for `CN(C)CCCNC(=S)Nc1cccc(S(=O)(=O)N(C)C)c1`, the EC50 is > 100 µM (inactive).
For `CCN(CC)S(=O)(=O)c1ccc(NC(=S)NC(c2ccccc2)c2ccccc2)cc1`, the EC50 is 29 µM.
Under `CC1CC(NC(=S)Nc2cccc(S(=O)(=O)N(C)C)c2)CC(C)N1` (centres undefined) stands > 100 µM (inactive); under `COc1ccccc1CNC(=S)Nc1ccc(S(=O)(=O)N(C)C)cc1`, 89.9 µM; under `CN(C)S(=O)(=O)c1cccc(NC(=S)NCCc2cccc(O)c2)c1`, > 100 µM (inactive).
Under `CN(C)S(=O)(=O)c1cccc(NC(=S)NCCc2ccc(Br)cc2)c1` stands 86.7 µM; under `CN(C)S(=O)(=O)c1ccc(NC(=S)NCCC(c2ccccc2)c2ccccc2)cc1`, 38.6 µM; under `O=S(=O)(c1ccc(NC(=S)NC(c2ccccc2)c2ccccc2)cc1)N1CCCC1`, 26.1 µM.
With `CN(C)S(=O)(=O)c1cccc(NC(=S)NCCC(c2ccccc2)c2ccccc2)c1` the figure was > 100 µM (inactive).
With `CN(C)S(=O)(=O)c1cccc(NC(=S)NCCc2cccc(F)c2)c1`, the EC50 is > 100 µM (inactive).
In the case of `O=c1c2ccccc2[nH]c(=S)n1-c1cccc(S(=O)(=O)N2CCCC2)c1`, the EC50 was > 100 µM (inactive).
Turning to `CN(C)S(=O)(=O)c1cccc(NC(=S)NC(C)(C)CC(C)(C)C)c1`, the EC50 was 91.5 µM.
Under `CN(C)S(=O)(=O)c1ccc(NC(=S)NCCc2cccc(Br)c2)cc1` stands 65.5 µM; under `O=S(=O)(c1ccc(NC(=S)NCCC(c2ccccc2)c2ccccc2)cc1)N1CCCC1`, 49.8 µM.
As to `Cc1ccc(S(=O)(=O)N(C)C)cc1NC(=S)NC1CCN(Cc2ccccc2)CC1`, the EC50 is > 100 µM (inactive).
For the compound `O=C(NC(=S)Nc1cc(S(=O)(=O)N2CCOCC2)ccc1N1CCOCC1)c1ccco1`, the EC50 is > 100 µM (inactive).
With `CC1CCN(S(=O)(=O)c2ccc(NC(=S)NCCC(c3ccccc3)c3ccccc3)cc2)CC1`, the EC50 was 18.9 µM.
With `CCN(CC)c1ccc(C(=O)NC(=S)Nc2cc(S(=O)(=O)N3CCOCC3)ccc2-n2cncn2)cc1` the figure was > 100 µM (inactive); with `CN(C)S(=O)(=O)c1cccc(NC(=S)NCCC(=O)N2CCCC2)c1`, > 100 µM (inactive).
On to `COc1cccc(CCNC(=S)Nc2cccc(S(=O)(=O)N(C)C)c2)c1`, for which the EC50 is 90.3 µM.
Turning to `CN(C)S(=O)(=O)c1ccc(NC(=S)NCc2ccc(Cl)cc2)cc1`, the EC50 is > 100 µM (inactive).
Under `CN(C)S(=O)(=O)c1cccc(NC(=S)NC(c2ccccc2)c2ccccc2)c1` stands 20 µM; under `CN(C)S(=O)(=O)c1cccc(NC(=S)NCCc2ccc(F)cc2)c1`, > 100 µM (inactive); under `O=S(=O)(c1ccc(NC(=S)NCC(c2ccccc2)c2ccccc2)cc1)N1CCCC1`, 19.9 µM.
With `CN(C)S(=O)(=O)c1ccc(NC(=S)NC(c2ccccc2)c2ccccc2)cc1` the figure was 18.4 µM; with `Cc1ccc(S(=O)(=O)N(C)C)cc1NC(=S)NCCCn1ccnc1`, > 100 µM (inactive); with `CCOc1cc(CCNC(=S)Nc2ccc(S(=O)(=O)N(C)C)cc2)ccc1OC`, > 100 µM (inactive).
Under `O=C(CCc1ccccc1)NC(=S)Nc1cccc(S(=O)(=O)N2CCCC2)c1` stands > 100 µM (inactive); under `Cc1ccccc1CNC(=S)Nc1ccc(S(=O)(=O)N(C)C)cc1`, 75.6 µM.

Broadly, the EC50 is the midpoint of the concentration-response curve.
